Results: PubChem BioAssay (NCI)
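Here, GI50 denotes the concentration required for 50% inhibition of growth. The concentration for full growth arrest is given as TGI.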

Key:
Test in all cases: NCI anticancer screen, dose series, 384-well format
[1] = system: 786-0 renal
[2] = system: A498 renal
[3] = system: A549 NSCLC
[4] = system: ACHN renal
[5] = system: BT-549 breast
[6] = system: CAKI-1 renal
[7] = system: CCRF-CEM leukemia
[8] = system: COLO 205 colon
[9] = system: DU-145 prostate
[10] = system: EKVX NSCLC
[11] = system: HCC-2998 colon
[12] = system: HCT-116 colon
[13] = system: HCT-15 colon
[14] = system: HL-60(TB) leukemia
[15] = system: HOP-62 NSCLC
[16] = system: HOP-92 NSCLC
[17] = system: HS 578T breast
[18] = system: HT29 colon
[19] = system: IGROV1 ovarian
[20] = system: K-562 leukemia
[21] = system: KM12 colon
[22] = system: LOX IMVI melanoma
[23] = system: M14 melanoma
[24] = system: MALME-3M melanoma
[25] = system: MCF7 breast
[26] = system: MDA-MB-231 breast
[27] = system: MDA-MB-435 melanoma
[28] = system: MDA-MB-468 breast
[29] = system: MOLT-4 leukemia
[30] = system: NCI-H226 lung
[31] = system: NCI-H23 lung
[32] = system: NCI-H322M lung
[33] = system: NCI-H460 NSCLC
[34] = system: NCI-H522 lung
[35] = system: NCI/ADR-RES ovarian
[36] = system: OVCAR-3 ovarian
[37] = system: OVCAR-4 ovarian
[38] = system: OVCAR-5 ovarian
[39] = system: OVCAR-8 ovarian
[40] = system: PC-3 prostate
[41] = system: RPMI-8226 leukemia
[42] = system: RXF 393 renal
[43] = system: SF-268 CNS
[44] = system: SF-295 CNS
[45] = system: SF-539 CNS
[46] = system: SK-MEL-28 melanoma
[47] = system: SK-MEL-5 melanoma
[48] = system: SK-OV-3 ovarian
[49] = system: SN12C renal
[50] = system: SNB-19 CNS
[51] = system: SNB-75 CNS
[52] = system: SR leukemia
[53] = system: SW-620 colon
[54] = system: T-47D breast
[55] = system: TK-10 renal
[56] = system: U251 glioblastoma
[57] = system: UACC-257 melanoma
[58] = system: UO-31 renal

`O=C(NO)c1ccc(CN(c2cnccn2)c2cnccn2)cc1` was tested, and the GI50 [1] was 14.5 µM, the TGI [1] was 27.8 µM and the GI50 [2] was 11.9 µM. It also gave a TGI [2] of 25.8 µM, a GI50 [3] of 13.8 µM and a TGI [3] of 27.1 µM. For the same compound, the GI50 [4] was 11.2 µM, the TGI [4] was 23.8 µM and the GI50 [5] was 11.5 µM. For the same compound, the TGI [5] was 24.1 µM, the GI50 [6] was 12.4 µM and the TGI [6] was 26 µM. For the same compound, the GI50 [7] was 2.32 µM, the TGI [7] was 4.28 µM and the GI50 [8] was 3.36 µM. It also gave a TGI [8] of 8.11 µM, a GI50 [9] of 3.71 µM and a TGI [9] of 13.1 µM. It also gave a GI50 [10] of 7.91 µM, a TGI [10] of 20.2 µM and a GI50 [11] of 12 µM. The TGI [11] was 24.4 µM, the GI50 [12] was 3.01 µM and the TGI [12] was 11.2 µM. For the same compound, the GI50 [13] was 11.7 µM, the TGI [13] was 24.3 µM and the GI50 [14] was 7.18 µM. It also gave a TGI [14] of 18.9 µM, a GI50 [15] of 12.4 µM and a TGI [15] of 25.5 µM. For the same compound, the GI50 [16] was 11.9 µM, the TGI [16] was 24.5 µM and the GI50 [17] was 10.5 µM. It also gave a TGI [17] of 22.4 µM, a GI50 [18] of 15.6 µM and a TGI [18] of 29.7 µM. For the same compound, the GI50 [19] was 11.8 µM, the TGI [19] was 24.1 µM and the GI50 [20] was 7.51 µM. For the same compound, the TGI [20] was 20.2 µM, the GI50 [21] was 3.31 µM and the TGI [21] was 12.3 µM. The GI50 [22] was 7.46 µM, the TGI [22] was 19.8 µM and the GI50 [23] was 3.93 µM. The TGI [23] was 14.3 µM, the GI50 [24] was 3.38 µM and the TGI [24] was 12.6 µM. The GI50 [25] was 4.65 µM, the TGI [25] was 19.4 µM and the GI50 [26] was 15.7 µM. It also gave a TGI [26] of 29.4 µM, a GI50 [27] of 4.96 µM and a TGI [27] of 15 µM. It also gave a GI50 [28] of 2.49 µM, a TGI [28] of 10 µM and a GI50 [29] of 1.92 µM. For the same compound, the TGI [29] was 3.52 µM, the GI50 [30] was 12.4 µM and the TGI [30] was 25.1 µM. For the same compound, the GI50 [31] was 2.01 µM, the TGI [31] was 3.96 µM and the GI50 [32] was 9.66 µM. The TGI [32] was 22.4 µM, the GI50 [33] was 10.2 µM and the TGI [33] was 22.1 µM. The GI50 [34] was 4.84 µM, the TGI [34] was 16.2 µM and the GI50 [35] was 4.36 µM. For the same compound, the TGI [35] was 15.1 µM, the GI50 [36] was 3.27 µM and the TGI [36] was 12.2 µM. The GI50 [37] was 5.94 µM, the TGI [37] was 19 µM and the GI50 [38] was 11 µM. It also gave a TGI [38] of 31.2 µM, a GI50 [39] of 1.81 µM and a TGI [39] of 3.86 µM. For the same compound, the GI50 [40] was 7.66 µM, the TGI [40] was 20.9 µM and the GI50 [41] was 1.35 µM. For the same compound, the TGI [41] was 2.81 µM, the GI50 [42] was 3.83 µM and the TGI [42] was 14.2 µM. For the same compound, the GI50 [43] was 8.01 µM, the TGI [43] was 20.9 µM and the GI50 [44] was 2.62 µM. For the same compound, the TGI [44] was 6.48 µM, the GI50 [45] was 2.95 µM and the TGI [45] was 10.6 µM. For the same compound, the GI50 [46] was 2.93 µM, the TGI [46] was 7.33 µM and the GI50 [47] was 4.27 µM. It also gave a TGI [47] of 12.8 µM, a GI50 [48] of 12.2 µM and a TGI [48] of 25.1 µM. The GI50 [49] was 14.7 µM, the TGI [49] was 28.1 µM and the GI50 [50] was 13 µM. For the same compound, the TGI [50] was 26.6 µM, the GI50 [51] was 5.98 µM and the TGI [51] was 18.2 µM. It also gave a GI50 [52] of 1.77 µM, a TGI [52] of 3.87 µM and a GI50 [53] of 10.6 µM. It also gave a TGI [53] of 22.7 µM, a GI50 [54] of 5.59 µM and a TGI [54] of 17.6 µM. For the same compound, the GI50 [55] was 12.9 µM, the TGI [55] was 26.4 µM and the GI50 [56] was 4.7 µM. It also gave a TGI [56] of 15.6 µM, a GI50 [57] of 5.02 µM and a TGI [57] of 17.8 µM. The GI50 [58] was 13.5 µM and the TGI [58] was 26.6 µM.
